Assay in all cases: NCI tumour cell line growth inhibition, 48 h
In assay [1] the test system is KM20L2 colon.
Assay [2] has as its system DMS 273 small cell lung.
For assay [3], the system named is LXFL 529 NSCLC.
The test system of assay [4] is HOP-18 NSCLC.
Assay [5] deals with RXF-631 renal.
In assay [6] the test system is DLD-1 colon.
Assay [7] has as its system M19-MEL melanoma.
The test system of assay [8] is MDA-N.
Assay [9] deals with XF 498 CNS.
In assay [10] the test system is P388/ADR leukemia.

Structures are written as SMILES. “And” between values parts separate entries of the source, which are not always exact repeats. Equal entries are not always repeated.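 Test compounds were applied to cells in 96-well plates for 48 hours at 5 doses. GI50 marks 50% less growth. TGI is the concentration that stops growth completely.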 Where only a bound is given, the exact number is not on record here.

Take `N#Cc1c(N)oc2cc3c(C#N)c(N)oc3cc12`: the TGI in assay [1], in assay [2], in assay [3], in assay [4], in assay [5] and in assay [6] was above 100 µM in each case. In [7], this compound registered a TGI above 100 µM.
In turn, `COc1cc2c(c3oc4c(O)cccc4c(=O)c13)CC(C(C)(O)CCl)O2` (configuration not stated) yielded a TGI in assay [8] of 2.45 µM.
With `O=C(CC1(O)C(=O)Nc2ccccc21)c1cccc(O)c1` (configuration not stated), the TGI in assay [1], in assay [9], in assay [2], in [3], in assay [5] and in assay [6] was above 100 µM throughout. In [7], this compound registered a TGI above 100 µM.
Take `C#Cc1c(C)c(/C=C/C(C)=C\C(=O)OC)n(C)c1C`: the TGI in [1], in assay [9], in assay [2], in assay [3], in [4] and in [6] was above 100 µM each time. The TGI in assay [7] was above 100 µM.
As to `CN(C)NC(=O)NC12CC3CC(CC(C3)C1)C2`, the TGI in [1], in [9], in [2], in assay [3] and in [7] was above 100 µM throughout.
For the compound `O=[N+]([O-])c1ccc(N=P(c2ccccc2)(c2ccccc2)c2ccccc2)n2nnnc12`, the TGI in assay [1], in [9], in assay [2], in assay [3], in [4] and in assay [7] was above 100 µM in each case.
For the compound `COC1=CC(=O)C2(C=C1OC)OC[C@H]1Oc3c(ccc4c3C=CC(C)(C)O4)C(=O)[C@H]12` (some centres not stated), the TGI in assay [1], in [9], in [2], in [3], in [5] and in assay [6] was above 100 µM in each case. Moreover, the TGI in assay [7] is above 100 µM.
With `Nc1nc(N)c(CCCCc2ccc([N+](=O)[O-])cc2)c(N)n1`, the TGI in [1], in assay [9], in assay [2], in [3], in [4] and in assay [6] was above 100 µM each time. Also, the TGI in [7] and in assay [8] was above 100 µM in each case.
`COC(=O)C(=O)C(C(=O)C(=O)Nc1cc(C)ccc1C)c1nc2ccccc2[nH]c1=O` (configuration not stated): the TGI in assay [8] is above 100 µM.
Turning to `C=C1C(=O)C23C(O)CC4C(C)(C)CCC(O)C4(C)C2CC(OC(C)=O)C1[C@H]3O` (some centres not stated), the TGI in [1] amounted to 11.1 µM; in assay [9], 3.33 µM; in [2], 3.79 µM; in assay [3], 2.41 µM; in [4] it was 3.82 µM; in assay [5] it was 15.7 µM. Besides, the TGI in [6] amounted to 4.65 µM; in assay [7] it was 3.22 µM; in [8], 20.6 µM.
For the compound `NP1(Oc2ccc(F)cc2)=NP(N)(Oc2ccc(F)cc2)=NP(Oc2ccc(F)cc2)(Oc2ccc(F)cc2)=N1` (configuration not stated), in assay [8], the TGI was 19 µM.
For `COc1cccc(NC(=O)/C(CS(=O)(=O)CCC(C(C)=O)C(C)=O)=N\NC(C)(C)C)c1`, the TGI in assay [1], in [2], in assay [3], in assay [4] and in [6] was above 100 µM in each case.
As to `O=C(O)CN(CCN(CC(=O)O)CC(=O)O)CC(=O)O.[Cu+2].[Na+]`, in assay [8], the GI50 was above 100 µM and the TGI is above 100 µM.
For the compound `C=C1C(C)C2C(Cc3ccccc3)NC(=O)C23C(OC(C)=O)C=CC(C)(O)C(=O)C(C)C/C=C/C3C1O` (configuration not stated), the TGI in assay [10] was 90.3 µM; in [1], 99.2 µM and > 500 µM; in assay [9], 28.5 µM; in assay [2], 73.9 µM and > 500 µM; in [3], 96.4 µM; in [4], 1.09 µM and 0.117 µM. In addition, the TGI in [7] is 93.4 µM and > 500 µM; in [8], 21.4 µM and > 162 µM. Further, the GI50 is 0.275 µM in assay [1]; 0.05 µM in [2]; 0.0404 µM and 0.05 µM in assay [4]; 57.3 µM in assay [7]; 1.75 µM in assay [8].
As to `COc1cc2c3c(c4cc(OC)c(OC)cc4c2cc1OC)CN1CCC[C@H]1C3`, in assay [8], the GI50 is 0.0817 µM and < 0.0129 µM; the TGI is 6.57 µM and 0.776 µM.
For the compound `Cc1nc2ccccc2c(=O)n1/N=C(\N=Nc1cc(Cl)ccc1Cl)c1ccc(N(C)C)cc1`, the TGI was above 100 µM in assay [1]; 8.35 µM in [9]; above 100 µM in [2]; above 100 µM in assay [3]; above 100 µM in [4]; above 100 µM in assay [6]. In [7], this compound displayed a TGI above 100 µM.
In the case of `O=C1N(c2ccc(Cl)cc2)C(=O)C2(SC=NN2Cc2ccccc2)N1c1ccc(Cl)cc1` (configuration not stated), the TGI in assay [1] was above 100 µM; in assay [9], 94.4 µM; in assay [3] it was above 100 µM; in assay [4] it was above 100 µM; in [5], above 100 µM; in [6], above 100 µM. Further, the TGI in [7] is above 100 µM.
For `CCOC(=O)C(Oc1ccc(OC)c2c1C(=O)CCC2)c1ccccc1` (configuration not stated), the TGI in assay [1], in [9], in assay [2], in [3], in assay [6] and in [7] was above 100 µM in each case.
Consider `Cc1ccccc1NC(=O)C(=O)C(C(=O)c1ccccc1F)C1OC(=O)c2ccccc21` (configuration not stated), for which the TGI in [1] was above 100 µM; in assay [2], 64.5 µM; in assay [3], 75.3 µM; in assay [4] it was 79.4 µM; in assay [5], 73.6 µM; in assay [6] it was 57.7 µM.

The record behind these values is PubChem BioAssay (NCI).
